The text below walks through data of patent publication US5597823A, “Tricyclic substituted hexahydrobenz [e]isoindole alpha-1 adrenergic antagonists” (priority 1995, dated 1997).

Structures can show the parent of a compound that is named as a salt.

One test addresses T1, α-1A adrenoceptor (dog prostate) (Canis lupus, UniProt A0A8I3NK63).
T1 sequence (A0A8I3NK63 1-466): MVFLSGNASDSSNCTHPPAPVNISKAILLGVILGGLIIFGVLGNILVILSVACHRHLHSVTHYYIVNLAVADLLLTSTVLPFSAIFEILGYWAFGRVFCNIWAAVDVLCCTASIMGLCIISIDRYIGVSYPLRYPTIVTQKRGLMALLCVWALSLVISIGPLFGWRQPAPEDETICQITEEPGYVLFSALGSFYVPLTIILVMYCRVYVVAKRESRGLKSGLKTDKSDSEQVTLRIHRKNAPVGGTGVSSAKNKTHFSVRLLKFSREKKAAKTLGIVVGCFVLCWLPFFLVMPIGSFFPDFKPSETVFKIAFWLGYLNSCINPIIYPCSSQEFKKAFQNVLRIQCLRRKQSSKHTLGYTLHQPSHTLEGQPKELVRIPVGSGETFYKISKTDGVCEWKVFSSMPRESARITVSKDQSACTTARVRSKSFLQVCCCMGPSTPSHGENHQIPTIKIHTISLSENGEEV
The test can be described thus: Functional antagonism: phenylephrine (PE)-induced contraction of canine prostate strips. Type of test: cell-based. The settings on record: Table 2b; vs phenylephrine; Schild plot. From the text:
Functional assays indicative of pharmacologically defined α-1 adrenoceptors were used to further characterize compounds. Inhibition of phenylephrine (PE)-induced contraction of canine prostate smooth muscle can be correlated with α-1A adrenoceptor activation. […] For each of these models, agonist dose response curves were repeated against increasing concentrations of test agent to derive a Schild plot [log ([…]) against log (molarity of test agent)] to determine the pA2.
Canine prostate strips were used in vitro as previously described (Hieble, J. P., Boyce, A. J. and Caine, M., Fed. Proc., 45:2609-2614 (1986)), to determine antagonist potencies against phenylephrine-induced contractions.
`COc1cccc2c1CC[C@H]1CN(CCn3c(=O)[nH]c4c(sc5nc(-c6ccccc6)c(-c6ccccc6)nc54)c3=O)C[C@@H]21` [Example 100, 3-[2-(cis-(3aR,9bR)-6-Methoxy-2,3,3a,4,5,9b-hexahydro-[1H]-benz[e]isoindol-1-yl)ethyl]-7,8-diphenylpyrazino[2',3':4,5]thieno[3,2-d]pyrimidine-2,4(1H,3H)-dione hydrochloride]: the “pA2 Dog Prostate [α-1A]” value is listed as 6.92.
Consider `COc1cccc2c1[C@@H]1CN(CCCCn3c(=O)[nH]c4c(sc5cccnc54)c3=O)C[C@@H]1CC2` [Example 79, dihydrochloride], for which the “pA2 Dog Prostate [α-1A]” value is 8.77.
Take `COc1cccc2c1[C@@H]1CN(CCCCn3c(=O)[nH]c4c(sc5ccccc54)c3=O)C[C@@H]1CC2` (relative stereo) [Example 15, 3-[4-(cis-9-Methoxy-2,3,3a,4,5,9b-hexahydro-1H]-benz[e]isoindol-1-yl)butyl]-[1]benzothieno[3,2-d]pyrimidine-2,4(1H,3H)-dione hydrochloride]: the “pA2 Dog Prostate [α-1A]” value is 7.34.
With `COc1cccc2c1CC[C@H]1CN(CCn3c(=O)c4sc5cccnc5c4n(C)c3=O)C[C@@H]21` [Example 61, dihydrochloride], the “pA2 Dog Prostate [α-1A]” value is on record as 9.5.
Consider `CCn1c(=O)n(CCN2C[C@@H]3CCc4c(OC)cccc4[C@@H]3C2)c(=O)c2sc3nccnc3c21` [Example 98, hydrochloride], for which the “pA2 Dog Prostate [α-1A]” value stood at 9.39.
In the case of `COc1cccc2c1CC[C@H]1CN(CCn3c(=O)[nH]c4sc5ccccc5c4c3=O)C[C@@H]21` (relative stereo) [Example 13, 3-[2-(cis-6-Methoxy-2,3,3a,4,5,9b-hexahydro-[1H]-benz[e]isoindol-1-yl)ethyl]-[1]benzothieno[2,3-d]pyrimidine-2,4(1H,3H)-dione hydrochloride], the “pA2 Dog Prostate [α-1A]” value was 7.68.
For the compound `COc1cccc2c1CC[C@H]1CN(CCn3c(=O)[nH]c4c(oc5ncccc54)c3=O)C[C@@H]21` (relative stereo) [Example 27, 3-[2-(cis-6-Methoxy-2,3,3a,4,5,9b-hexahydro-[1H]-benz[e]isoindol-1-yl)ethyl]-pyrido[3',2':4,5]furo[3,2-d]pyrimidine-2,4(1H,3H)-dione hydrochloride], the “pA2 Dog Prostate [α-1A]” value is given as 8.72.
For `COc1cccc2c1CC[C@H]1CN(CCn3c(=O)[nH]c4c(oc5ccccc54)c3=O)C[C@@H]21` (relative stereo) [Example 3, 3-[2-(cis-6-Methoxy-2,3,3a,4,5,9b-hexahydro-1H]-benz[e]isoindol-1-yl)ethyl]-benzofuro[3,2-d]pyrimidine-2,4(1H,3H)-dione hydrochloride], the “pA2 Dog Prostate [α-1A]” value was 8.4.
Turning to `COc1cccc2c1CC[C@H]1CN(CCn3c(=O)[nH]c4c([nH]c5ccncc54)c3=O)C[C@@H]21` [Example 97, hydrochloride], the “pA2 Dog Prostate [α-1A]” value worked out at 9.66.
As to `COc1cccc2c1CC[C@H]1CN(CCn3c(=O)[nH]c4c(sc5cccc(Cl)c54)c3=O)C[C@@H]21` [Example 72, 3-[2-((3aR,9bR)-cis-6-Methoxy-2,3,3a,4,5,9b-hexahydro-[1H]-benz[e]isoindol-1-yl)ethyl]-[1]-9-chloro-benzothieno[3,2-d]pyrimidine-2,4(1H,3H)-dione hydrochloride], the “pA2 Dog Prostate [α-1A]” value stood at 8.38.
Consider `COc1cccc2c1CC[C@H]1CN(CCn3c(=O)[nH]c4c(oc5cccnc54)c3=O)C[C@@H]21` [Example 77, 3-[2-((3aR,9bR)-cis-6-Methoxy-2,3,3a,4,5,9b-hexahydro-[1H]-benz[e]yl)ethyl]-pyrido[2',3':4,5]furo[3,2-d]pyrimidine-2,4(1H3 H)-dione hydrochloride], for which the “pA2 Dog Prostate [α-1A]” value worked out at 9.09.
Turning to `COc1cccc2c1[C@@H]1CN(CCCn3c(=O)[nH]c4c(sc5ccccc54)c3=O)C[C@@H]1CC2` (relative stereo) [Example 6, hydrochloride], the “pA2 Dog Prostate [α-1A]” value is 6.91.
In the case of `COc1cccc2c1CC[C@H]1CN(CCn3c(=O)[nH]c4cc5[nH]cnc5cc4c3=O)C[C@@H]21` [Example 53, 7-[2-((3aR,9bR)cis-6-Methoxy-2,3,3a,4,5,9b-hexahydro,[1H]-benz[e]isoindol-1-yl)ethyl]-imidazo[4,5-g]quinazoline-6,8(1H,5H)-dione hydrochloride], the “pA2 Dog Prostate [α-1A]” value amounted to 9.25.
On to `COc1cccc2c1CC[C@H]1CN(CCn3cnc4c([nH]c5ccccc54)c3=O)C[C@@H]21` [Example 66, 3-2-((3aR,9bR)-cis-6-Methoxy-2,3,3a,4,5,9b-hexahydro-[1H]-benz[e]isoindol-1-yl)ethyl]-1H-pyrimido[5,4-b]indole-4(1H,3H)-one hydrochloride], for which the “pA2 Dog Prostate [α-1A]” value worked out at 9.71.
As to `COc1cccc2c1CC[C@H]1CN(CCn3cnc4c(sc5ncccc54)c3=O)C[C@@H]21` [Example 34, 3-[2-((3aR,9bR)-cis-6-Methoxy-2,3,3a,4,5,9b-hexahydro-[1H]-benz[e]isoindol-1-yl)ethyl]-pyrido[3',2':4,51thieno[3,2:d]pyrimidine-4(3H)-one dihydrochloride], the “pA2 Dog Prostate [α-1A]” value was determined as 9.15.
For `CCOc1cccc2c1CC[C@H]1CN(CCn3c(=O)[nH]c4c(sc5ncccc54)c3=O)C[C@@H]21` [Example 109, hydrochloride], the “pA2 Dog Prostate [α-1A]” value was found to be 8.00.
`COc1cccc2c1CC[C@H]1CN(CCn3c(=O)c4sc5ccccc5c4n(C)c3=O)C[C@@H]21` [Example 33, hydrochloride]: the “pA2 Dog Prostate [α-1A]” value was found to be 6.56.
With `COc1cccc2c1CC[C@H]1CN(CCn3c(=O)[nH]c4c(sc5ccc(Cl)cc54)c3=O)C[C@@H]21` [Example 67, hydrochloride], the “pA2 Dog Prostate [α-1A]” value is on record as 8.98.
The same measure, in the same setting: then `COc1cccc2c1CC[C@H]1CN(CCn3c(=O)[nH]c4c(ccc5ncccc54)c3=O)C[C@@H]21` [Example 82, 3-[2-((3aR,9bR)cis-6-Methoxy-2,3,3a,4,5,9b-hexahydro-[1H]-benz[e]isoindol-1-yl)ethyl]-pyrido[2,3-h]quinazoline-2,4(1H,3H)-dione hydrochloride], with 9.09.
In the case of `COc1cccc2c1CC[C@H]1CN(CCn3c(=O)[nH]c4c(sc5nc(C)c(C)nc54)c3=O)C[C@@H]21` [Example 103, hydrochloride], the “pA2 Dog Prostate [α-1A]” value is listed as 9.43.
Consider `COC(=O)c1ccc2sc3c(=O)n(CCN4C[C@@H]5CCc6c(OC)cccc6[C@@H]5C4)c(=O)[nH]c3c2c1` [Example 44, 3-[2-((3aR,9bR)-cis-6-Methoxy-2,3,3a,4,5,9b-hexahydro-[1H]-benz[e]isoindol-1-yl)ethyl]-[1]-8-carbomethoxy-benzothieno[3,2-d]pyrimidine-2,4(1H,3H)-dione hydrochloride], for which the “pA2 Dog Prostate [α-1A]” value was determined as 8.09.
Regarding `COc1cccc2c1CC[C@H]1CN(CCn3c(=O)[nH]c4c(sc5cc([N+](=O)[O-])ccc54)c3=O)C[C@@H]21` [Example 47, 3-[2-((3aR,9bR)-cis-6-Methoxy-2,3,3a.4,5,9b-hexahydro-[1H]-benz[e]isoindol-1-yl)ethyl]-[1]-7-nitro-benzothieno[3,2-d]pyrimidine-2,4(1H,3H)-dione hydrochloride], the “pA2 Dog Prostate [α-1A]” value is recorded as 8.7.
In the case of `COc1cccc2c1CC[C@H]1CN(CCn3c(=O)[nH]c4c(sc5ccc([N+](=O)[O-])cc54)c3=O)C[C@@H]21` [Example 48, 3-[2-((3aR,9bR)-cis-6-Methoxy-2,3,3a,4,5,9b-hexahydro-[1H]-benz[e]isoindol-1-yl)ethyl]-[1]-8-nitro-benzothieno[3,2-d]pyrimidine-2,4(1H,3H)-dione hydrochloride], the “pA2 Dog Prostate [α-1A]” value is 8.32.
Take `COc1cccc2c1CC[C@H]1CN(CCN3CNc4c(sc5ncccc45)C3=O)C[C@@H]21` [Example 70, dihydrochloride]: the “pA2 Dog Prostate [α-1A]” value is given as 8.57.
On to `COc1cccc2c1[C@@H]1CN(CCn3c(=O)[nH]c4c(sc5ccccc54)c3=O)C[C@H]1CC2` (relative stereo) [Example 2, 3-[2-(trans-9-Methoxy-2,3,3a4,5,9b-hexahydro-[1H]-benz[e]isoindol-1-yl)ethyl]-[1]benzothieno[3,2-d]pyrimidine-2,4(1H,3H)-dione hydrochloride], for which the “pA2 Dog Prostate [α-1A]” value was found to be 7.81.
For `COc1cccc2c1CC[C@H]1CN(CCCCn3c(=O)[nH]c4c(sc5ccccc54)c3=O)C[C@@H]21` (relative stereo) [Example 12, 3-[4-(cis-6-Methoxy-2,3,3a,4,5,9b-hexahydro-[1H]-benz[e]isoindol-1-yl)butyl]-[1]benzothieno[3,2-d]pyrimidine-2,4(1H,3H)-dione hydrochloride], the “pA2 Dog Prostate [α-1A]” value worked out at 7.33.

Staying with this test, now noted: Table 2b; vs phenylephrine; Schild plot; hydrochloride.
With `COc1cccc2c1CC[C@H]1CN(CCn3c(=O)[nH]c4c(sc5cccc(C)c54)c3=O)C[C@@H]21` [Example 35, 3-2-((3aR,9bR)-cis-6-Methoxy-2,3,3a,4,5,9b-hexahydro-[1H]-benz[e]isoindol-1-yl)ethyl]-9-methyl[1]benzothieno[3,2-d]pyrimidine-2,4(1H,3H)-dione hydrochloride], the “pA2 Dog Prostate [α-1A]” value stood at 8.74.
